Data as given in PMC10287695, “Non-covalent inhibitors of thioredoxin glutathione reductase with schistosomicidal activity in vivo” (Nature Communications, 2023).
Where “and” joins values, the source holds several entries; their conditions need not be identical. Identical values can stand only once. Like-named read-outs stand apart in the source and are kept apart here. Marks after values point to notes of the source that are not given here.

What was measured:
Human GR = target: T1, Human GR (Homo sapiens, UniProt P00390); assay: Human GR enzyme inhibition (GSSG reduction, NADPH oxidation); format: biochemical
T1 construct: made in house
T1 sequence (P00390 44-522): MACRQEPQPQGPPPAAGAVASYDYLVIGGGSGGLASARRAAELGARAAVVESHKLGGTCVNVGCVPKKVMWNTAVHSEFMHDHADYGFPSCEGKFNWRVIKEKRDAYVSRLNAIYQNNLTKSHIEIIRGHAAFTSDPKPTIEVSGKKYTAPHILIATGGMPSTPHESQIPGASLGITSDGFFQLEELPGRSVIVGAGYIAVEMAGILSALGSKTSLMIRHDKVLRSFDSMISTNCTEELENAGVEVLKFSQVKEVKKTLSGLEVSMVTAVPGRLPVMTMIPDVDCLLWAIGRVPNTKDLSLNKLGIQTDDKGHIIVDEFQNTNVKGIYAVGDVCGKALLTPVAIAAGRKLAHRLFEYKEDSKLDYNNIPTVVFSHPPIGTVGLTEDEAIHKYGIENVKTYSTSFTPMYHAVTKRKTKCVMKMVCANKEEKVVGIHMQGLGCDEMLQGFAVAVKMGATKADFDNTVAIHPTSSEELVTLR

S. mansoni adult worms [1] = assay: GSH/GSSG ratio in ex vivo adult worms; format: cell-based
Protocol: We assessed GSH/GSSG levels experimentally by treating S. mansoni adult worms with 50 µM of compounds, or respective controls 5 µM Auranofin, 50 µM PZQ or 50 µM MZM and 0.01% DMSO for 3 h. Worm homogenate was prepared by washing three times with PBS to remove residual compounds and ten volumes of ice cold 5% sulfosalicylic acid was added. Worms were manually homogenized on ice using VWR Pellet Mixer Adaptor. The worm suspension was centrifuged at 14000 × g, 4 °C for 10 min and the acid supernatants transferred. An equal volume of ice-cold neutralization buffer (500 mM HEPES, pH 8.0) was added to the acid supernatants.
GSH/GSSG assay was performed by diluting the acid supernatant (5-fold) with ice-cold dilution buffer (250 mM HEPES, pH 7.5). Using white opaque luminescence plate on ice, 25 µl of the diluted worm acid supernatant was added each well in triplicates. Total glutathione lysis reagent and GSSG lysis reagent, which contains alkylating agent N-ethylmaleimide (25 mM) were prepared following manufactures protocol and added to respective wells along with blank for background. Total glutathione lysis reagent or oxidized glutathione lysis reagent (25 µl) was added to respective wells containing worm acid supernatants and the plate was shaken for 5 min. Luciferin generation reagent (LGR) (50 µl) was added to all wells, briefly shaken and incubated at room temperature for 30 min. Luciferin detection reagent (LDR) (100 µl) was added to all wells, briefly shaken and incubated for 15 min at room temperature and the luminescence measured using microplate imager (BioTek Cytation3). GSH/GSSH ratio for DMSO control and compounds were calculated using (Net DMSO total glutathione RFU) – (Net DMSO GSSG RFU)/ (Net DMSO GSSG RFU)/2 and (Net inhibitor total glutathione RFU) – (Net inhibitor GSSG RFU)/ (Net inhibitor GSSG RFU)/2 respectively.

S. mansoni adult worms [2] = assay: Schistosomicidal activity ex vivo, adult worms (Cell Titer Glo), alone or with channel blockers; format: cell-based; conditions: for LD50 ex vivo S. mansoni adult: 24 h exposure, compound alone
Protocol: Three-week old, female Swiss-Webster mice obtained from the Charles River were housed in the Comparative Research Center of Rush University Medical Center. Mice were infected by percutaneous tail exposure to about 200 S. mansoni or 50 S. japonicum cercaria for adult worms and about 1000 cercaria for juvenile S. mansoni worms through natural transdermal penetration of the cercariae for 1 h[81].
DMSO formulated compounds were diluted with phenol red free M199 medium or RPMI medium for NTS or juvenile and adult worms, respectively, at <1% DMSO final concentrations. NTS, juvenile and adult worms from overnight cultures were tested against compounds in triplicate. Controls were treated with DMSO alone or 5 µM AF as a positive control in appropriate medium. […] Schistosome viabilities in the presence of the compounds were assessed using this formula: % Viability = Averages of Test / Averages of DMSO Control x 100.

[3] = Schistosoma mansoni, S. mansoni adult worms, relative to Worm + RPMI control, read-out: % viability
[4] = adult worms ex vivo, 1 hr, relative to 0hr

CC1C(NCc2cn(C3OCC(O)C(O)C3O)c3ccccc23)CC2CC1C2(C)C (stereo not shown) [Compound 9]
Human GR (inhibition at 66.7 µM) (Human GR; 66.7 µM): n.i. | inhibition at 15 µM (Human GR; hGR, 15 minutes pre-incubation, compound 15 µM, read-out: % inhibition): -0.142% | inhibition at 30 µM (Human GR; hGR, 15 minutes pre-incubation, compound 30 µM, read-out: % inhibition): -2.5% | inhibition at 66.7 µM (Human GR; hGR, 15 minutes pre-incubation, compound 66.7 µM, read-out: % inhibition): -1.69% | inhibition at 15 µM (Human GR; hGR, 6 hours pre-incubation, compound 15 µM, read-out: % inhibition): -0.844% | inhibition at 30 µM (Human GR; hGR, 6 hours pre-incubation, compound 30 µM, read-out: % inhibition): -1.45% | inhibition at 66.7 µM (Human GR; hGR, 6 hours pre-incubation, compound 66.7 µM, read-out: % inhibition): -3.11% | Ratio GSH/GSSG (S. mansoni adult worms [1]; 1 hr, second data set (r136-144), baseline 63.5617, DMSO 63.4928): 62.1962 | Reduction (%) in GSH/GSSG ratio (S. mansoni adult worms [1]; 1 hr, third data set): 1.8641% | Ratio GSH/GSSG (S. mansoni adult worms [1]; 1 hr, third data set (r147-159), 0hr 72.45): 71.10 | % Ratio GSH/GSSG (S. mansoni adult worms [1]; 1 hr, third data set (r147-159), 0hr = 100): 98.1359% | Reduction (%) in GSH/GSSG ratio (S. mansoni adult worms [1]; 1 hr, third data set, (values given as fraction)): 0.0186% | Ratio GSH/GSSG (S. mansoni adult worms [1]; 3 hr, second data set (r136-144), baseline 63.5617, DMSO 203.124): 55.0997 | Reduction (%) in GSH/GSSG ratio (S. mansoni adult worms [1]; 3 hr, third data set): 10.4658% | Ratio GSH/GSSG (S. mansoni adult worms [1]; 3 hr, third data set (r147-159), 0hr 72.45): 64.87 | % Ratio GSH/GSSG (S. mansoni adult worms [1]; 3 hr, third data set (r147-159), 0hr = 100): 89.5342% | Reduction (%) in GSH/GSSG ratio (S. mansoni adult worms [1]; 3 hr, third data set, (values given as fraction)): 0.10% | Decrease (%) in GSH/GSSG ratio (S. mansoni adult worms [1]; adult worms, 3 h exposure to compounds at 50 μM): 9% | LD50 ex vivo S. mansoni adult (S. mansoni adult worms [2]): >100^a µM and >100 µM | viability at 5 µM (S. mansoni adult worms [2]; [3]): 99.2% | viability at 15 µM (S. mansoni adult worms [2]; [3]): 91.1% | viability at 30 µM (S. mansoni adult worms [2]; [3]): 88.8% | viability at 50 µM (S. mansoni adult worms [2]; [3]): 83.3% | viability at 100 µM (S. mansoni adult worms [2]; Schistosoma mansoni, S. mansoni adult worms, 100 µM, relative to Worm + RPMI control, read-out: % viability): 78.4%

C[C@@H]1[C@H]2C[C@@H](C[C@H]1NCc1cc(-c3ccccc3)[nH]n1)C2(C)C [Compound 11]
Human GR (inhibition at 66.7 µM) (Human GR; 66.7 µM): n.i. | inhibition at 15 µM (Human GR; 15 minutes pre-incubation, 15 µM, read-out: hGR % inhibition): -0.832% | inhibition at 30 µM (Human GR; 15 minutes pre-incubation, 30 µM, read-out: hGR % inhibition): -1.45% | inhibition at 66.7 µM (Human GR; 15 minutes pre-incubation, 66.7 µM, read-out: hGR % inhibition): -1.01% | inhibition at 15 µM (Human GR; 6 hours pre-incubation, 15 µM, read-out: hGR % inhibition): -0.778% | inhibition at 30 µM (Human GR; 6 hours pre-incubation, 30 µM, read-out: hGR % inhibition): -1.99% | inhibition at 66.7 µM (Human GR; 6 hours pre-incubation, 66.7 µM, read-out: hGR % inhibition): -2.81% | % Ratio GSH/GSSG (S. mansoni adult worms [1]; adult worms ex vivo, 1 hr): 59.9789% | Reduction (%) in GSH/GSSG ratio (S. mansoni adult worms [1]; [4]): 1.477% | Reduction (%) in GSH/GSSG ratio (S. mansoni adult worms [1]; adult worms ex vivo, 1 hr, relative to 0hr, values given as fraction): 0.01477% | % Ratio GSH/GSSG (S. mansoni adult worms [1]; adult worms ex vivo, 3 hr): 59.8685% | Reduction (%) in GSH/GSSG ratio (S. mansoni adult worms [1]; adult worms ex vivo, 3 hr, relative to 0hr): 1.659% | Reduction (%) in GSH/GSSG ratio (S. mansoni adult worms [1]; adult worms ex vivo, 3 hr, relative to 0hr, values given as fraction): 0.01659% | viability at 5 µM (S. mansoni adult worms [2]; [3]): 97.5% | viability at 15 µM (S. mansoni adult worms [2]; [3]): 93.7% | viability at 30 µM (S. mansoni adult worms [2]; [3]): 89.4% | viability at 50 µM (S. mansoni adult worms [2]; [3]): 88.5%

C[C@@H]1[C@H]2C[C@@H](C[C@H]1NCc1nc3ccccc3n1C)C2(C)C [Compound 12]
Human GR (inhibition at 66.7 µM) (Human GR; 66.7 µM): n.i. | % Ratio GSH/GSSG (S. mansoni adult worms [1]; adult worms ex vivo, 1 hr): 59.2209% | Reduction (%) in GSH/GSSG ratio (S. mansoni adult worms [1]; [4]): 1.36% | % Ratio GSH/GSSG (S. mansoni adult worms [1]; adult worms ex vivo, 3 hr): 58.1972% | LD50 ex vivo S. mansoni adult (S. mansoni adult worms [2]): >50^a µM
